Experimental findings from patent US10844002B2, “Lipids and lipid compositions for the delivery of active agents” (priority 2014, dated 2020) are described below.

In data set [1] the test system is H1N1 influenza A strain, Ca107. Nature of the data set: Immunogenicity in ferret models (Influenza): haemagultanin inhibition (HAI) titers. In kind it is in vivo, ferrets. Conditions: IM. The procedure:
For immunization in ferrets, a lipid working solution was freshly prepared by dissolving 22.5 mg of Example 1, 5.9 mg of DSPC, 13.9 mg of Cholesterol and 4.0 mg of PEG2000-conjugated DMPE (cat #880150P, Avanti Polar Lipids, Inc.) in 10 ml ethanol. A 10 mL working solution of RNA was also prepared at a concentration of 0.125 mg/ml in 100 mM citrate buffer (pH 6). The working lipid and RNA solutions were heated at 37° C. for 5 min before being loaded into two 10 cc luer-lok syringes. […] The outlet from the T mixer was also FEP tubing separately, 10 mL of citrate buffer (pH 6) was loaded in a third 10 cc syringe which was connected to a separate piece of tubing. All three syringes were loaded on a syringe pump and driven at 1.0 ml/min. The tubing outlets were positioned to collect the mixtures in a 20 mL glass vial which was gently stirred using a stirring bar. All glass vials were baked at 250° C. for 12 hours prior to experiment to completely inactivate any RNase contaminant. At the end of mixing, the stir bar was taken out and the ethanol/aqueous solution was allowed to equilibrate to room temperature for 1 hour. After incubation, the ethanol/aqueous solution was loaded into a syringe, and mixed with equal volume of 100 mM citrate buffer (pH 6) using the aforementioned Tee-junction process. Next, LNPs were concentrated to 20 mL and dialyzed against 10-15 volumes of 1× PBS using by tangential flow filtration before recovering the final product. The TFF system and hollow fiber filtration membranes were purchased from Spectrum Labs (Rancho Dominguez) and were used according to the manufacturer's guidelines. Polysulfone hollow fiber filtration membranes with a 100 kD pore size cutoff and 8 cm^2 surface area were used. For in vitro and in vivo experiments formulations were diluted to the required RNA concentration with 1×. PBS.
A total of seven experimental groups with six animals per group (42 animals) were used in this study; two vaccine doses of each RNA formulation (Groups 2-5), two groups vaccinated with a non-adjuvated (H1N1 subunit) or an adjuvated (MF59/H1N1 subunit) commercially available H1N1 influenza subunit vaccine (Groups 6 and 7) and a mock vaccinated group (Group 1). The RNA test vaccines were derived from a recombinant DNA plasmid (pDNA) carrying an alphavirus genome in which the structural genes were replaced with the HA gene from the H1N1 influenza A strain, Ca107. The RNA was then formulated in either cationic oil-in-water emulsion (CNE) or LNP for delivery to host cells via intramuscular (IM) injection. RNA concentrations for each formulation study group were 15 and 45 mcg for CNE and 5 and 15 mcg for LNP. The H1N1 subunit vaccines were used at a HA subunit protein concentration of 15 mcg. Non-vaccinated animals were mock vaccinated with a vehicle control for the RNA test vaccines. All test vaccines were administered by IM injection on Study Days (SD) 0 followed with a booster vaccination on Study Day 56 (8 weeks post 1st immunization).
Table 5 summarizes Influenza microneutralization data and table 6 the haemagultanin inhibition (HAI) titers. The LNP formulation tested generated immune responses with as little as 5 μg of self-amplifying RNA, as determined by increased HA-specific neutralization and HAI titers.

A short description of data set [2]: Measurement of mRNA encapsulation in lipid nanoparticles (Quant-iT Ribogreen). The following applies: LNP cationic lipid/DSPC/cholesterol/stealth lipid, N:P 4:1, leptin mRNA. In kind it is physicochemical. The procedure:
All equipment and disposable supplies are certified free of RNase activity by the manufacturer or rendered RNase free by use of the RNaseZap reagent (LifeTechnologies). mRNA is encapsulated at a cationic lipid amine to mRNA phosphate (N:P) molar ratio of 4:1. Lipids (cationic lipid, DSPC, cholesterol and lipidated PEG or stealth lipid) are dissolved in ethanol. The molar ratios are 40:10:38:2, respectively. The mixture is sonicated briefly, then gently agitated for 5 minutes and then maintained at 37° C. until use. mRNA is exchanged into citrate buffer pH 5.8-6.0 by use of Amicon Ultra-15 centrifugal concentrators, and the final concentration is adjusted to 0.5 mg/ml and held at 37° C. until use. An equal volume of lipids in ethanol, mRNA in citrate buffer, and citrate buffer alone are drawn into disposable syringes. Tubing leading from syringes containing lipids and mRNA are attached to the T junction, and tubing leading from the syringe containing citrate buffer alone is paired with the tubing exiting the T-junction over a collection vessel containing a stir bar on an active stir plate. Syringes are placed in a syringe pump set to expel contents at a flow rate of 1 ml per minute.
The pump is activated, and the collected mRNA in lipid nanoparticles is transferred to SnakeSkin dialysis tubing (10,000 MWCO, Thermo Scientific). Material is dialyzed against RNAse- and pyrogen-free 1× phosphate buffered saline overnight at 4° C.
Percent encapsulation of mRNA in lipid nanoparticles is determined using the Quant-iT Ribogreen RNA Assay kit (Life Technologies). The LNP-mRNA suspension is assayed in buffer (mRNA outside the particle), and buffer plus Triton X-100 detergent (total mRNA). The difference calculated is the mRNA inside the particle. Prepare a 1000 ng/mL stock from the RNA provided in the kit and use this to generate a standard curve (0 ng/ml, 15.63-1000 ng/ml) in TE and TE+0.75% Triton X-100. Prepare LNP-mRNA samples in TE buffer and TE buffer+0.75% Triton X-100 with appropriate dilution so that reading is in the range of standard curve (400-2,000 fold). In a 384-well plate (Costar non-treated #3573) add 0.04 ml of standard (in duplicate) or sample (in triplicate) per well. Dilute Ribogreen reagent 240-fold in TE buffer and add 0.06 ml per well. Mix contents of wells and measure fluorescence (excitation=480 nm, emission=520 nm). Subtract background values (no RNA) from standard and test sample values and determine the concentrations of RNA in the samples using the standard curves. Determine the percent encapsulation of the sample by dividing the difference in concentrations between sample+triton and sample in buffer alone by the sample+triton concentration.

Structures are written as SMILES. Values joined by “and” are separate entries in the source; they are usually repeats but may differ in a detail not shown here. Identical values can stand only once.

Turning to `CCCCC/C=C\C/C=C\CCCCCCCCOc1ccc(OCCCCCCCC/C=C\C/C=C\CCCCC)c(COC(=O)CCCN(C)C)c1` [Example 1, 2,5-bis((9Z,12Z)-octadeca-9,12-dien-1-yloxy)benzyl 4-(dimethylamino)butanoate], the “Influenza HAI titer” value is 20 (2×) and 80 and 40 (2×) and 10 in data set [1] (5 mcg RNA, 4wp1, per animal); 640 (2×) and >20480 (3×) and 320 in data set [1] (5 mcg RNA, 4wp2, per animal); 20 (2×) and 40 (2×) and 10 and <10 in data set [1] (5 mcg RNA, 8wp1, per animal); less than 10 in data set [1] (5 mcg RNA, Pre-bleed, per animal); 160 (2×) and 320 and 80 (2×) and 40 in data set [1] (15 mcg RNA, 4wp1, per animal); 640 (4×) and >20480 (2×) in data set [1] (15 mcg RNA, 4wp2, per animal). For the same compound, the “Influenza HAI titer” value in data set [1] (15 mcg RNA, 8wp1, per animal) is 40 (3×) and 80 (2×) and 20; in data set [1] (15 mcg RNA, Pre-bleed, per animal) it was less than 10. Besides, the “% encapsulation (mRNA Leptin)” value in data set [2] was 73.3%.
